Values joined by “and” are separate entries in the source; they are usually repeats but may differ in a detail not shown here. Equal entries are not always repeated.
Legend:
[1] = Pharmacokinetics after 24-hour subcutaneous infusion via fluid delivery device in male Beagle dogs (plasma, LC-MS/MS); settings: for AUC(0-t): AUClast; for MRT last: MRTlast
[2] = oral; cited from earlier work
[3] = Group 1, SC infusion 40 mg/animal, individual animals
[4] = SC infusion 76 mg/animal, individual animals
[5] = dogs, 40 mg/24 h and 76 mg/24 h SC infusion, both dosages
[6] = male, Beagle, dog, in vivo, sc, 3.21 mg/kg, Group 1, SC infusion, dose 3.21 mg/kg, mean
[7] = male, Beagle, dog, in vivo, sc, 5.45 mg/kg, Group 2, SC infusion, dose 5.45 mg/kg, mean
[8] = male, Beagle, dog, in vivo, sc, 40 mg, Group 1, SC infusion 40 mg/animal, mean
[9] = male, Beagle, dog, in vivo, sc, 40 mg/animal, Plasma concentration of CBD, Group 1, SC infusion 40 mg/animal, individual animals, BLOQ = below 1 ng/mL
[10] = male, Beagle, dog, in vivo, sc, 40 mg/animal, Plasma concentration of CBD, Group 1, SC infusion 40 mg/animal, mean (BLOQ samples excluded)
[11] = male, Beagle, dog, in vivo, sc, 76 mg, SC infusion 76 mg/animal, mean
[12] = male, Beagle, dog, in vivo, sc, 76 mg/animal, Plasma concentration of CBD, SC infusion 76 mg/animal, individual animals, BLOQ = below 1 ng/mL
[13] = male, Beagle, dog, in vivo, sc, 76 mg/animal, Plasma concentration of CBD, SC infusion 76 mg/animal, mean (BLOQ samples excluded)

C=C(C)[C@@H]1CCC(C)=C[C@H]1c1c(O)cc(CCCCC)cc1O [CBD, Cannabidiol]
AUClast [1, 3]: 363 ng·h/mL and 19.9 ng·h/mL and 127 ng·h/mL and 371 ng·h/mL
Cmax [1, 3]: 14.2 ng/mL (2×) and 5.34 ng/mL and 5.83 ng/mL
MRTlast [1, 3]: 26.0 h and 3.61 h and 16.3 h
tmax [1, 3]: 30.0 hr (3×) and 3.00 hr
Cmax ([1]; Group 1, SC infusion, dose 3.21 mg/kg, mean): 9.92 ng(mL
Cmax ([1]; Group 2, SC infusion, dose 5.45 mg/kg, mean): 11.7 ng(mL
AUClast [1, 4]: 217 ng·h/mL and 493 ng·h/mL and 129 ng·h/mL and 372 ng·h/mL
Cmax [1, 4]: 10.3 ng/mL and 17.5 ng/mL and 5.24 ng/mL and 13.6 ng/mL
MRTlast [1, 4]: 30.4 h and 18.9 h and 21.5 h
tmax [1, 4]: 24.0 hr (2×) and 2.00 hr and 18.0 hr
Absorption: first detection of CBD levels in blood [1, 5]: detected within an hour of the beginning of infusion
Elimination: CBD detectability after end of infusion [1, 5]: still detectable 24 h after completion of fluid delivery device infusion
Constancy of CBD concentration in the blood ([1]; group 1 (40 mg CBD/animal) and group 2 (76 mg CBD/animal), FIGS. 24 and 25): constant concentration of CBD in the blood with a minimal variation is reached after few hours
AUC(0-t) [1, 6]: 221 ng·h/mL
MRT last [1, 6]: 17.6 h
tmax ([1]; male, Beagle, dog, in vivo, sc, 3.21 mg/kg, Tmax, Group 1, SC infusion, dose 3.21 mg/kg, mean): 23.3 h
AUC(0-t) [1, 7]: 303 ng·h/mL
MRT last [1, 7]: 24.3 h
tmax ([1]; male, Beagle, dog, in vivo, sc, 5.45 mg/kg, Tmax, Group 2, SC infusion, dose 5.45 mg/kg, mean): 17 h
AUC(0-t) [1, 8]: 221 ng·h/mL
Cmax ([1]; male, Beagle, dog, in vivo, sc, 40 mg, Cmax, Group 1, SC infusion 40 mg/animal, mean): 9.92 ng/mL
MRT last [1, 8]: 17.6 h
tmax ([1]; male, Beagle, dog, in vivo, sc, 40 mg, tmax, Group 1, SC infusion 40 mg/animal, mean): 23.3 h
concentration at 0.083 h ([1]; male, Beagle, dog, in vivo, sc, 40 mg/animal, Plasma concentration of CBD, Group 1, SC infusion 40 mg/animal, 0.083 hr, individual animals, BLOQ = below 1 ng/mL): 5.76 ng/mL
concentration at 0.5 h ([1]; male, Beagle, dog, in vivo, sc, 40 mg/animal, Plasma concentration of CBD, Group 1, SC infusion 40 mg/animal, 0.5 hr, mean (BLOQ samples excluded)): 3.28 ng/mL
concentration at 0.75 h [1, 9]: 2.83 ng/mL
concentration at 0.75 h [1, 10]: 2.45 ng/mL
concentration at 1 h [1, 10]: 2.63 ng/mL
concentration at 2 h [1, 10]: 3.72 ng/mL
concentration at 3 h [1, 10]: 7.36 ng/mL
concentration at 4 h [1, 10]: 4.1 ng/mL
concentration at 5 h [1, 10]: 5.11 ng/mL
concentration at 6 h [1, 10]: 6.12 ng/mL
concentration at 7 h [1, 10]: 5.53 ng/mL
concentration at 8 h [1, 9]: 5.06 ng/mL
concentration at 8 h [1, 10]: 6.03 ng/mL
concentration at 10 h [1, 10]: 5.92 ng/mL
concentration at 12 h [1, 9]: 4.47 ng/mL
concentration at 12 h [1, 10]: 5.12 ng/mL
concentration at 18 h [1, 9]: 3.31 ng/mL
concentration at 24 h [1, 9]: 9.48 ng/mL
concentration at 24 h [1, 10]: 8.82 ng/mL
concentration at 30 h [1, 10]: 11.4 ng/mL
concentration at 36 h ([1]; male, Beagle, dog, in vivo, sc, 40 mg/animal, Plasma concentration of CBD, Group 1, SC infusion 40 mg/animal, 36 hr, individual animals, BLOQ = below 1 ng/mL): 9.05 ng/mL
concentration at 36 h ([1]; male, Beagle, dog, in vivo, sc, 40 mg/animal, Plasma concentration of CBD, Group 1, SC infusion 40 mg/animal, 36 hr, mean (BLOQ samples excluded)): 7.59 ng/mL
concentration at 48 h ([1]; male, Beagle, dog, in vivo, sc, 40 mg/animal, Plasma concentration of CBD, Group 1, SC infusion 40 mg/animal, 48 hr, individual animals, BLOQ = below 1 ng/mL): 4.2 ng/mL
concentration at 48 h ([1]; male, Beagle, dog, in vivo, sc, 40 mg/animal, Plasma concentration of CBD, Group 1, SC infusion 40 mg/animal, 48 hr, mean (BLOQ samples excluded)): 5.15 ng/mL
AUC(0-t) [1, 11]: 303 ng·h/mL
Cmax ([1]; male, Beagle, dog, in vivo, sc, 76 mg, Cmax, SC infusion 76 mg/animal, mean): 11.7 ng/mL
MRT last ([1]; male, Beagle, dog, in vivo, sc, 76 mg, SC infusion 76 mg/animal, individual animals): 26.5 h
MRT last [1, 11]: 24.3 h
tmax ([1]; male, Beagle, dog, in vivo, sc, 76 mg, tmax, SC infusion 76 mg/animal, mean): 17 h
concentration at 1 h [1, 12]: 3.73 ng/mL
concentration at 1 h [1, 13]: 5.31 ng/mL
concentration at 2 h [1, 12]: 3.69 ng/mL
concentration at 2 h [1, 13]: 4.97 ng/mL
concentration at 3 h [1, 13]: 4.38 ng/mL
concentration at 4 h [1, 13]: 3.31 ng/mL
concentration at 5 h [1, 12]: 2.42 ng/mL
concentration at 5 h [1, 13]: 2.17 ng/mL
concentration at 6 h [1, 13]: 5.35 ng/mL
concentration at 7 h [1, 13]: 4.78 ng/mL
concentration at 8 h [1, 13]: 5.14 ng/mL
concentration at 10 h [1, 13]: 4.19 ng/mL
concentration at 12 h [1, 13]: 6.03 ng/mL
concentration at 18 h [1, 13]: 5.93 ng/mL
concentration at 24 h [1, 13]: 9.68 ng/mL
concentration at 30 h [1, 13]: 9.04 ng/mL
concentration at 36 hr ([1]; male, Beagle, dog, in vivo, sc, 76 mg/animal, Plasma concentration of CBD, SC infusion 76 mg/animal, 36 hr, mean (BLOQ samples excluded)): 6.04 ng/mL
concentration at 48 hr ([1]; male, Beagle, dog, in vivo, sc, 76 mg/animal, Plasma concentration of CBD, SC infusion 76 mg/animal, 48 hr, mean (BLOQ samples excluded)): 8.32 ng/mL
Fraction lost in the liver through the digestion [2]: approximately 94%
